# Measured values as given in patent US20070275382A1, “Biomarkers for the Efficacy of Somatostatin Analogue Treatment” (priority 2003, published 2007).
# *1 amine or outer side, *2 acyl side, *3 side chain or, on linkers, in order; H or OH if unused. Where a SMILES comes first, the peptide text is derived from it. Side-chain parts run from the residue outwards. [ ]: non-standard residue; d: D form. The star is where a group is joined. Ethylenediamine = C(CN[*:2])N[*:1]; Hyp = O=C(O)[CH]1C[CH](O)CN1; Phg = N[CH](C(=O)O)c1ccccc1; CO = O=C([*:1])[*:2]; Bn = c1ccc(C*)cc1
# How the values were obtained:
# [1] = system: Brown fat; assay: Microarray gene expression profiling (HG-U95A), brown fat; type: in vivo, cynomolgus monkeys
# Procedure: (§1) Origin of tissue and processing. Male and female cynomolgus monkeys received subcutaneously pasireotide (100 μg/animal/day) or the vehicle for 14 days. On day 15, all animals were sacrificed and tissues for RNA extraction were immediately snap-frozen and kept at −80° C. until processing.
# (§2) RNA expression profiling was conducted by means of the HG-U95A gene expression probe array (Affymetrix; Santa Clara, Calif. USA), containing more than 12,600 probe sets interrogating primarily full-length human genes and also some control probe sets. The experiment was conducted according to the recommendations of the manufacturer. Briefly, total RNA was obtained by acid guanidinium thiocyanate-phenol-chloroform extraction (Trizol®, Invitrogen Life Technologies, San Diego, Calif. USA) from each frozen tissue section. The total RNA was then purified on an affinity resin (Rneasy®, Qiagen) and quantified. Double stranded cDNA was synthesized with a starting amount of approximately 5 μg full-length total RNA using the Superscript® Choice System (Invitrogen Life Technologies, Carlsbad, Calif. USA) in the presence of a T7-(dT)24 DNA oligonucleotide primer. Following synthesis, the cDNA was purified by phenol/chloroform/isoamyl alcohol extraction and ethanol precipitation. The purified cDNA was then transcribed in vitro using the BioArray® High Yield RNA Transcript Labeling Kit (ENZO, Farmingdale, N.Y. USA) in the presence of biotinylated ribonucleotides form biotin labelled cRNA. The labelled cRNA was then purified on an affinity resin (Rneasy®, Qiagen), quantified and fragmented. An amount of approximately 10 μg labelled cRNA was hybridized for 16 hours at 45° C. to an expression probe array. The array was then washed and stained twice with streptavidin-phycoerythrin (Molecular Probes,) using the GeneChip® Fluidics Workstation 400 (Affymetrix, Santa Clara, Calif. USA). The array was then scanned twice using a confocal laser scanner (GeneArray® Scanner, Agilent, Palo Alto, Calif. USA) resulting in one scanned image. This resulting “.dat-file” was processed using the MAS4 program (Affymetrix) into a “.cel-file”. The “.cel file” was captured and loaded into the Affymetrix GeneChip® Laboratory Information Management System (LIMS). The LIMS database is connected to a UNIX Sun Solaris server through a network filing system that allows for the average intensities for all probes cells (CEL file) to be downloaded into an Oracle database (NPGN). Raw data was converted to expression levels using a “target intensity” of 150. The data were evaluated for quality control and loaded in the GeneSpring® software 4.2.4 (Silicon Genetics, Calif. USA) for analysis.
# (§3) On the human Affymetrix HGU95Av2 chip, probe sets for individual genes contain 20 oligonucleotide pairs, each composed of a “perfect match” 25-mer and a “mismatch” 25-mer differing from the “perfect” match oligonucleotide at a single base. After probe labelling, hybridization, and laser scanning, the expression level was estimated by averaging the differences in signal intensity measured by oligonucleotide pairs of a given probe (AvgDiff value). The fold changes and directions were calculated for selected genes, from the differences of the AvgDiff values between controls and treated.
# (§4) To identify genes that were impacted by pasireotide, the dataset was initially filtered to exclude in a first wave of analysis, genes whose values were systematically in the lower expression ranges where the experimental noise is high (at least 80 in a number of experiments corresponding to the smallest number of replicas of any experimental point). In a second round of selection a threshold p-value of 0.05 (based on a t-test) identified differences between treated and control based on a two component error model (Global Error Model) and, whenever possible, with a stepdown correction for multi-hypothesis testing (Benjamini and Hochberg false discovery rate). […]
# [2] = system: Pancreas; assay: Microarray gene expression profiling (HG-U95A), pancreas; type: in vivo, cynomolgus monkeys
# Procedure: as §1, §2, §3, §4
# [3] = ↑ vs control, 100 μg/animal/day s.c., 14 days
# [4] = ↓ vs control, 100 μg/animal/day s.c., 14 days
compound,measurement,setting,value
"NCCCCC1NC(=O)C(Cc2c[nH]c3ccccc23)NC(=O)C(c2ccccc2)NC(=O)C2CC(OC(=O)NCCN)CN2C(=O)C(Cc2ccccc2)NC(=O)C(Cc2ccc(OCc3ccccc3)cc2)NC1=O (stereo not drawn) [Pasireotide, cyclo[4-(NH2—C2H4—NH—CO—O)Pro-Phg-DTrp-Lys-Tyr(4-Bzl)-Phe]] (cyclo(F[Hyp]([CO-Ethylenediamine])[Phg]WKY(Bn)); configuration not given here)","IGF-1 expression level, AvgDiff (range)",[1]; 0.1 mg/animal/14day,389 (315 to 449)
same,"IGFBP 4 expression level, AvgDiff (range)",[1]; 0.1 mg/animal/14day,763 (429 to 1058)
same,"IRS 2 expression level, AvgDiff (range)",[1]; 0.1 mg/animal/14day,146 (80 to 222)
same,"SSTR3 expression level, AvgDiff (range)",[1]; 0.1 mg/animal/14day,194 (87 to 248)
same,"Adrenergic, β-3-, receptor transcript fold change",[1]; [3],receptor ↑ x2.5
same,Apotosis-associated tyrosine kinase transcript fold change,[1]; [3],tyrosine kinase ↑ x3.5
same,CD2 antigen (cytoplasmic tail)-binding protein 2 transcript fold change,[1]; [3],binding protein 2 ↑ x2.5
same,CSF 3 receptor (granulocyte) transcript fold change,[1]; [3],(granulocyte) ↑ x3
same,"Ca++ channel, voltage dependent, α 1H subunit transcript fold change",[1]; [3],↑ x3
same,"Cadherin 5, VE-cadherin (vascular epithelium) transcript fold change",[1]; [3],epithelium) ↑ x3
same,Cyclin T2 transcript fold change,[1]; [3],Cyclin T2 ↑ x2.5
same,Dopamine receptor D3 transcript fold change,[1]; [3],↑ x2.5
same,Dual specificity PP MKP-5 transcript fold change,[1]; [3],MKP-5 ↑ x2.5
same,"Endothelial differentiation, sphingolipid G-protein-coupled receptor, 5 transcript fold change",[1]; [3],↑ x2.5
same,FSHR transcript fold change,[1]; [3],FSHR ↑ x2.5
same,Follistatin-like 3 glycoprotein transcript fold change,[1]; [3],glycoprotein ↑ x3
same,G protein-activated inwardly rectifying K+ channel transcript fold change,[1]; [3],channel ↑ x3.5
same,"GLUR, metabotropic 1 transcript fold change",[1]; [3],↑ x2
same,"Guanine nucleotide binding protein (G protein), β polypeptide 3 transcript fold change",[1]; [3],↑ x2.5
same,IFN induced transmembrane protein 1 transcript fold change,[1]; [3],1 ↑ x2.5
same,"IL 3 (CSF, multiple) transcript fold change",[1]; [3],↑ x2
same,"IL 5R, α transcript fold change",[1]; [3],"IL 5R, α↑ x2.5"
same,IL 7R precursor transcript fold change,[1]; [3],IL 7R precursor ↑ x2
same,IRS (insulin receptor substrate) 2 transcript fold change,[1]; [3],substrate) 2 ↑ x2.5
same,"Oxytocin, prepro-(neurophysin I) transcript fold change",[1]; [3],(neurophysin I) ↑ x2.5
same,"PI glycan, class L transcript fold change",[1]; [3],x3.5
same,PLC β 4 transcript fold change,[1]; [3],PLC β 4 ↑ x2
same,"PP 5, catalytic subunit transcript fold change",[1]; [3],↑ x2.5
same,T3 receptor transcript fold change,[1]; [3],T3 receptor ↑ x2
same,TGF β 3 transcript fold change,[1]; [3],TGF β 3 ↑ x2.5
same,TGF β-activated kinase-binding protein 1 transcript fold change,[1]; [3],↑ x2.5
same,VGF nerve growth factor inducible transcript fold change,[1]; [3],factor inducible ↑ x2
same,"Actin related protein 2/3 complex, subunit 1A (41 kD) transcript fold change",[1]; [4],(41 kD) ↓ x2.5
same,CSF 1 (macrophage) transcript fold change,[1]; [4],↓ x2
same,"Cadherin 13, H-cadherin (heart) transcript fold change",[1]; [4],cadherin (heart) ↓ x2
same,Cadherin F1B1 transcript fold change,[1]; [4],Cadherin F1B1 ↓ x4
same,Calcium/calmodulin-dependent protein kinase I transcript fold change,[1]; [4],kinase I ↓ x3.5
same,"Capping protein (actin filament), gelsolin-like transcript fold change",[1]; [4],↓ x2.5
same,Coagulation factor XIIIAI subunit precursor transcript fold change,[1]; [4],↓ x5
same,EGF receptor pathway substrate 15 transcript fold change,[1]; [4],substrate 15 ↓ x2
same,Endothelial cell GF 1 (platelet derived) transcript fold change,[1]; [4],(platelet derived) ↓ x2
same,"Extra spindle poles, S. cerevisiae, homologue of transcript fold change",[1]; [4],of ↓ x2.5
same,Fms-related tyrosine kinase 1 (VEGF/vascular permeability factor receptor) transcript fold change,[1]; [4],factor receptor) ↓ x4.5
same,G1 to S phase transition transcript fold change,[1]; [4],transition ↓ x1.5
same,G protein-coupled receptor 1 transcript fold change,[1]; [4],receptor 1 ↓ x2.5
same,G α inhibiting activity polypeptide 3 interacting protein transcript fold change,[1]; [4],protein ↓ x5
same,IFNγ-inducible protein 30 (IP30) transcript fold change,[1]; [4],30 (IP30) ↓ x3.5
same,IGF-1 transcript fold change,[1]; [4],IGF-1 ↓ x1.5
same,IGF-binding protein 4 transcript fold change,[1]; [4],↓ x2
same,Neuroblastoma apoptosis-related RNA binding protein transcript fold change,[1]; [4],binding protein ↓ x3
same,Neuroblastoma transcript fold change,[1]; [4],Neuroblastoma ↓ x2.5
same,PCNA transcript fold change,[1]; [4],PCNA ↓ x2.5
same,"PI glycan, class F transcript fold change",[1]; [4],"PI glycan, class F ↓ x2"
same,"PI-3-kinase. regulatory subunit, polypeptide 2 (p85 β) transcript fold change",[1]; [4],(p85 β) ↓ x3.5
same,"PP 2, regulatory subunit B (B56), γ isoform transcript fold change",[1]; [4],isoform ↓ x1.5
same,"Pentaxin-related gene, rapidly induced by IL-1 transcript fold change",[1]; [4],↓ x7.5
same,THR interactor 10 transcript fold change,[1]; [4],↓ x3
same,THR interactor 12 transcript fold change,[1]; [4],↓ x1.5
same,TNF type 1 receptor associated protein transcript fold change,[1]; [4],associated protein ↓ x2
same,"IGF-1 expression level, AvgDiff (range)",[2]; 0.1 mg/animal/14day,89 (20 to 298)
same,"SSTR2 expression level, AvgDiff (range)",[2]; 0.1 mg/animal/14day,156 (120 to 210)
same,Cdki 1C transcript fold change,[2]; [3],Cdki 1C ↑ x2
same,Chymotrypsin-like transcript fold change,[2]; [3],↑ x3.5
same,Cyclin D1 transcript fold change,[2]; [3],Cyclin D1 ↑ x2
same,"GLUR precursor, flip isoform transcript fold change",[2]; [3],flip isoform ↑ x3
same,IFN regulatory factor 3 transcript fold change,[2]; [3],factor 3 ↑ x5
same,IGF-1 transcript fold change,[2]; [3],IGF-1 ↑ x4.5
same,IP-1-phosphatase transcript fold change,[2]; [3],↑ x2.5
same,Integrin α 2b precursor transcript fold change,[2]; [3],precursor ↑ x1.5
same,"Na+ channel, voltage-gated, type 1, β polypeptide transcript fold change",[2]; [3],↑ x2
same,PDGFR α transcript fold change,[2]; [3],PDGFR α ↑ x2.5
same,"PDGFR, α polypeptide transcript fold change",[2]; [3],↑ x1.5
same,"PI-4-kinase, catalytic, α polypeptide transcript fold change",[2]; [3],α polypeptide ↑ x1.5
same,"PL A2, group IVC (cytosolic, calcium-independent) transcript fold change",[2]; [3],independent) ↑ x1.5
same,Prostacyclin synthase transcript fold change,[2]; [3],synthase ↑ x2
same,THR interactor 10 transcript fold change,[2]; [3],↑ x2.5
same,Thrombospondin 2 transcript fold change,[2]; [3],↑ x3.5
same,"BCL2/adenovirus E1B 19 kD-intracting protein 1, isoform BNIP1-a transcript fold change",[2]; [4],BNIP1-a ↓ x1.5
same,CRHR 1 transcript fold change,[2]; [4],CRHR 1 ↓ x2
same,"Ca++ channel, voltage dependent, α 1F subunit transcript fold change",[2]; [4],↓ x4.5
same,Cyclin T2 transcript fold change,[2]; [4],Cyclin T2 ↓ x2
same,G-CSF protein transcript fold change,[2]; [4],↓ x2
same,Gastrin-releasing peptide receptor transcript fold change,[2]; [4],↓ x5
same,IL 1 receptor antagonist transcript fold change,[2]; [4],antagonist↓ x2
same,"K+ voltage-gated channel, KQT-like subfamily, member3 transcript fold change",[2]; [4],↓ x2.5
same,Neuro-blastoma apoptosis-related RNA binding protein transcript fold change,[2]; [4],protein ↓ x3
same,Phosphotyrosine independent ligand p62B for the Lck SH2 domain B-cell isoform transcript fold change,[2]; [4],isoform ↓ x2
same,Smad 3 transcript fold change,[2]; [4],Smad 3 ↓ x1.5
same,THR binding protein transcript fold change,[2]; [4],protein ↓ x2
